Measurements from patent publication US4791135A (priority 1987, dated 1988).

Legend:
[1] = tested on: Plasmodium falciparum D-6 (Sierra Leone clone) and W-2 (Indochina clone); experiment: In vitro antimalarial activity against both clones, summarised in words; assay type: cell-based; conditions: in words; relative to artemisinin (3) or compounds 2 and 3
Protocol: (§1) The former clone is a strain that is resistant to mefloquine and the latter, to chloroquine, pyrimethamine, sulfadoxine, and quinine.
(§2) In vitro assays were conducted using a modification of the semiautomated microdilution technique of Desjardins et al., Antimicrob. Agents Chemoether., 1979, Volume 16, page 710 and Milhous et al., Antimicrob. Agents Chemother., 1985, Volume 27, page 525. Two P. falciparum malaria parasite clones, designated as Indochina (W-2) and Sierra Leone (D-6), were utilized in susceptibility testing. They were derived by direct visualization and micromanipulation from patient isolates obtained by the Centers for Disease Control, Atlanta, GA in 1980 and 1982, respectively. The patients had acquired infections either in Vietnam or Sierra Leone. The Indochina clone is resistant to the antimalarials chloroquine, sulfadoxine, pyrimethamine, and quinine, whereas the Sierra Leone, is resistant to mefloquine but susceptible to chloroquine, quinine, sulfadoxine, and pyrimethamine. Test compounds were initially dissolved in DMSO and 70% ethanol and diluted in RPMI 1640 culture medium with 10% human plasma to 400 fold. Drugs were subsequently further diluted using the Cetus Pro/Pette (Perkin-Elmer Corp., Norwalk, CT) over a range of 1.56-100×10^-9 molar. Parasite inocula (at 0.5% parasitemia and a 1% hematocrit) were incubated for 24 hours and added to equimolar concentrations of each test compound prior to the addition of ^3 H-hypoxanthine. After a further incubation of 18 hours, particulate matter was harvested from each microtiter well using an automated cell harvester (Skatron, Inc., Sterling, VA). Uptake of ^3 H-hypoxanthine was measured using a scintillation spectrophotometer (Model LS3801, Beckman Instruments, Irvine, CA). Concentration-response data were analyzed by nonlinear regression and the IC50 's (50% inhibitory concentrations) for each compound were calculated.

Water solubility = assay type: physicochemical
[2] = tested on: P. falciparum Indochina (W-2) clone; experiment: In vitro antimalarial susceptibility, 3H-hypoxanthine uptake, Indochina (W-2) clone; assay type: cell-based, Plasmodium falciparum; conditions: Plasmodium falciparum
Protocol: as §1
as §2, with “CA).” for “CA). Concentration-response data were analyzed by nonlinear regression and the IC50 's (50% inhibitory concentrations) for each compound were calculated.”

[3] = tested on: P. falciparum Sierra Leone (D-6) clone; experiment: In vitro antimalarial susceptibility, 3H-hypoxanthine uptake, Sierra Leone (D-6) clone; assay type: cell-based, Plasmodium falciparum
Protocol: as §1
as §2, with “CA).” for “CA). Concentration-response data were analyzed by nonlinear regression and the IC50 's (50% inhibitory concentrations) for each compound were calculated.”

physchem = assay type: physicochemical
Protocol: To compare the relative stability of the new agents vs. artesunic acid, stability studies of compound 8d and compound 1 were conducted in 2.5% K2 CO3 /D2 O solution at room temperature and were monitored by PMR. [drawing 8]
To a 5 mm NMR tube containing 10 mg of sample was added 0.5 mL of 2.5% K2 CO3 /D2 O solution. The initial spectrum of the solution was taken within 5 minutes, and again at intervals thereafter. The extent of hydrolysis was estimated by the following equation:
% Decomposition=(B/2A+B)×100
where A=integration of H-10 (5.80 ppm, d, J=10.8 Hz, 1H) and H-12 (5.71 ppm, s, 1H) of artesunate; B=integration of the singlet at 2.42 ppm for the potassium succinate formed. With time, the intensity of potassium succinate (2.42 ppm) signal increases, while that of H-10 and H-12 of artesunate decreases. The stability study of compound 1 in 5% NaHCO3 /D2 O was also carried out by the same procedure.

[4] = Stability of the free acid (PMR spectrum on standing); assay type: physicochemical; conditions: gradual changes in PMR spectrum on standing
From the text: Hydrolysis of the ester (compound 5a) with 2.5% KOH/MeOH gave the corresponding potassium salt which was purified by reverse phase chromatography. Conversion of the salt (compound 7a) to the free acid (compound 8a) was achieved by acidification with acetic acid. The free acid appears to be unstable, as evidenced by gradual changes seen in its PMR spectrum on standing. This may be due to the instability of the acetal or ketal functions of the molecule under acidic conditions. In contrast, compounds 7b through 7d were smoothly converted to their corresponding stable free acids (compounds 8b-d).

water solubility (Water solubility) | IC50 [2] [ng/mL] | In vitro antimalarial activity IC50, Sierra Leone (D-6) [3] [ng/mL] | stability in solution (physchem) | stability of free acid [4] | Compound | in vitro antimalarial activity relative to parent compounds [1]
water soluble | 0.92 | 1.74 | stable in solution |  | CC1CCC2C(C)C(OCc3ccc(C(=O)O)cc3)OC3OC4(C)CCC1C32OO4 (stereo not drawn) [Compound 7d, Potassium p-(10-Dihydroartemisininoxy)methylbenzoate] | comparable in vitro activity to artemisinin
 |  |  |  | unstable | CC1CCC2C(C)C(OCC(=O)O)OC3OC4(C)CCC1C32OO4 (stereo not drawn) [Compound 8a, 2-(10-Dihydroartemisininoxy)acetic acid] | 
